Patent US20240325548A1, “DYNAMIC BIOACTIVE SCAFFOLDS AND THERAPEUTIC USES THEREOF AFTER CNS INJURY” (Northwestern University, priority 2021, published 2024)

Tests used:
hNPCs = assay: Neuronal differentiation of hNPCs treated with IKVAV PAs (TUJ-1+ cells); format: cell-based, human
From the text: Neural progenitor cells (NPCs) were differentiated from human embryonic stem cells HUES 64 (Harvard University) (see FIG. 2C). In short, 70% confluent stem cell cultures grown in Matrigel (Thermo Fisher) coated plates with mTESR medium (STEMCELL Technologies), were switched to N2B27 medium (50% DMEM: F12, 50% Neurobasal, supplemented with NEAA, Glutamax, N2 and B27; Gibco) containing dual SMAD inhibitors (SB431542, DNSK International and LDN-193189, Tocris) for 12 days to induce the generation of neural progenitors. Neuralization was enhanced by supplementing medium with laminin from day 5 to 12. Next, neural rosettes were dissociated with neural rosette selection reagent (STEMCELL Technologies) to obtain NPCs, which are expanded in N2B27 (Gibco) medium supplemented with bFGF (Millipore). For experimentation in the different PA platforms, NPCs were dissociated with Accutase (Innovative Cell technology), and cultured in the distinct platforms with DMEM: F12+N2+B27 medium with hyclone penicillin-streptomycin (GE Healthcare) and ascorbic acid (0.2 μg/mL; Sigma-Aldrich).
For IKVAV PA treatments, hNPCs were cultured on ornithine coatings (German Glass, Chemglass Life Science) in 6 well and 24 well plates at a density of 500,000 cells/well and 80,000 cells/well respectively. hNPCs were treated with […] of IKVAV PAs ([PA]=6 mM, [KCl]=3 mM, [NaCl]=150 mM) or recombinant laminin protein (10 mg/mL) in solution. IKVAV PA2 and IKVAV PA5 were also mixed with 5 mM CaCl2) at a ratio PA:CaCl2) 6:1 to treat hNPCs. For 2D experiments, hNPCs were cultured on the different IKVAV PAs or laminin coatings in 6 well and 24 well plates at densities mentioned above. For co-assembled experiments, hNPCs were cultured on the different co-assembled PA coatings in 6 well and 24 well plates at a density of 400,000 cells/well and 50,000 cells/well respectively.
hNPCs were fed 4 times a week with DMEM: F12+N2^+B27 medium with hyclone penicillin-streptomycin and ascorbic acid. After 24 h, 72 h 1- or 2-weeks in vitro, cell lysates were harvested or fixed for WB or ICC, respectively. Three replicates per condition and at least three independent experiments were carried out for all conditions investigated.
For immunofluorescence, fixed primary cultures or free-floating tissue sections (40 m Thick) were incubated in blocking buffer containing 0.02% Triton-X (Sigma-Aldrich), 1% NHS (Gibco) and PBS 1× (Gibco). Samples were incubated with primary antibodies over night at 4° C. Alexa-488, Alexa-555 and/or Alexa-647 (1:500, Thermofisher) were used as secondary antibodies. DAPI (1:500, Thermofisher) was used to stain nuclei. Finally, the samples were mounted on coverslips with Immu-Mount (Fisher Scientific) solution for imaging.
For in vitro cell quantification, image files were imported into NIH Image J (1.51) software and the “analyze particles” and “cell counter” functions were used to measure the total number of cells in a determined area. Serial tissue sections were stained with NeuN and ChAT using free-floating immunostaining were quantified using Nikon Elements software. The rostral and caudal borders of the lesions were chosen as the first cross-sections that had NeuN staining in all four gray matter horns. 8 sections within the lesion were chosen per animal and expressed as number of neurons per section. Automated multichannel image acquisition, image stitching, and z-stack reconstruction ([…]) were carried out on a Nikon GasP R1 confocal microscope to image the entire selected cross-section for NeuN and Chat markers for all conditions.

[1] = system: murine model of severe spinal cord injury (SCI); assay: Corticospinal tract (CST) axon regrowth after SCI (BDA tracing); format: in vivo, mouse; details: 12 weeks after injury, BDA-labeled axons
Description: All experiments were conducted at the Simpson Querrey Institute at Northwestern University. 182 CD1 mice (Charles River) were subjects of this study (N=38 Sham, N=38 IKVAV PA2 alone, N=38 IKVAV PA2+FGF2 PA1, N=38 IKVAV PA2+FGF2 PA2, N=12 IKVAV PA1, N=12 Backbone PA, N=6 IKVAV PA4). The age of animals used in the study was in the range of 10-16 weeks. 8 independent in vivo experiments were carried out (injury+PA injection) and each of the 8 experiments had animals of the exact same age which were injected with at least the 4 main treatment groups: Sham, IKVAV PA2 alone, IKVAV PA2+FGF2 PA1, and IKVAV PA2+FGF2 PA2. Animals were anesthetized using 2.5% isoflurane gas with oxygen. A laminectomy was performed to expose the spinal cord at the T10-T11 spinal level. A severe contusive injury was performed using the Infinite Horizon Spinal Cord Impactor system (IH-0400 Precision Systems and Instrumentation) with 85 kdyn of impact force and a dwell time of 60 s. After the lesion, the skin was sutured using 9 mm wound clips (BD Biosciences) and the animals were recovered on a heating pad to maintain body temperature. Bladders were manually expressed daily during the entire 12 weeks of the experiment.
PAs (dissolved in sterile NaCl 0.9% solution at 1 wt %) were injected 24 h after SCI using a glass capillary micropipette (Sutter Instruments, Novato, CA) (outer diameter, 100 m) coated with Sigmacote (Sigma-Aldrich) to reduce surface tension as described elsewhere (19). The capillaries were loaded onto a Hamilton syringe using a female Luer adaptor (World Precision Instruments) controlled by a Micro4 microsyringe pump controller (World Precision Instruments). Under isoflurane anesthesia, autoclips were removed and the injury site was exposed. At 24 h post injury, the laminectomy in the spinal column was still intact and the bruise created by the lesion was visible. A stereotaxic Kopf apparatus was used to position the micropipette just dorsal to the lesion. The micropipette was lowered to a depth of 750 m measured from the dorsal surface of the cord, and 4-6 μL of the diluted amphiphile solution was injected at 1 L/min. […]
Axons labeled using BDA (Thermofisher, N7167) or stained with 5HT (Abcam) were quantified using Imaris® software version 9.3 as previously described (21). Lines were drawn across longitudinal spinal cord sections from the proximal border (PB) to the distal border (DB) of the SCI lesion at consistent distances and the number of axons intercepting the lines drawn was counted by researchers that were blinded to the experimental conditions. Multiple sections through the middle of the cord, where BDA or 5HT staining was denser, were counted per mouse and expressed as total intercepts per location, per animal. […]

| Substance | percentage of induction of TUJ-1+ neuronal cells (hNPCs) [%] | CST axon regrowth within the lesion [1] |
| --- | --- | --- |
| C16-V2A2E4GIKVAV [IKVAV PA1] | 8.2±0.7 | some regrowth of axons |
| C16-VAG2E4GIKVAV [IKVAV PA4] | 14±1.2 | intermediate level of axon regrowth |
| C16-A2G2E4GIKVAV [IKVAV PA2] | 20.5±1 | modest, but increased axon regrowth |
| C16-G4E4GIKVAV [IKVAV PA5] | 20.7±1.2 |  |
